Data from patent US20240285634A1, “COMPOUND AND METHOD FOR TREATING CHEMOTHERAPY-ASSOCIATED GASTROINTESTINAL SIDE EFFECTS” (ONQUALITY PHARMACEUTICALS CHINA LTD., priority 2021, published 2024).
Counter-ions that a name gives are not always drawn.

Experiments:
[1] = system: Chemotherapeutic agent-caused constipation models of Balb/c mice; assay: Relieving effect on constipation caused by a chemotherapeutic agent (Examples 202-364); format: in vivo; settings: for feces reduction rates compared with the chemotherapeutic agent group: administered before the chemotherapeutic agent, Table 4 and FIG. 4
Description: Construction of mouse animal models: Chemotherapeutic agent-caused constipation models of Balb/c mice were constructed according to the administration mode and frequency of the chemotherapeutic agent as shown in Table 4. […] Thus, chemotherapeutic agent-caused constipation models of mice are very good models to mimic constipation caused by the chemotherapeutic agent.
Balb/c mice were fed for 1 week, and then divided into groups. The experiment was divided into a control group, a chemotherapeutic agent group, and a group of the compound as shown in Formula I, each of which comprised 10 mice, to perform the administration experiment, for which the administration dosage, mode, time and frequency were shown in Table 4. The control group: being injected or intragastrically administered with the same solvent as that used in the group of the compound as shown in Formula I (the administration mode and time were shown in Table 4), and then being injected or intragastrically administered with the same solvent as that used in the chemotherapeutic agent group (the administration mode was shown in Table 4); the chemotherapeutic agent group: being injected or intragastrically administered with the same solvent as that used in the group of the compound as shown in Formula I (the administration mode and time was shown in Table 4), and then being injected or intragastrically administered with the chemotherapeutic agent (the type, administration mode and dosage were shown in Table 4); the group of the compound as shown in Formula I: being injected or intragastrically administered with the compound as shown in Formula I (the administration mode and time was shown in Table 4), and then being administered with the chemotherapeutic agent (the administration mode and dosage were shown in Table 4).
(§1) The feces reduction rate was calculated with reference to the method of Ji Eun Kim (Lab Anim Res. 2016 December; 32(4): 231-240.). Feces reduction rate (%)=(the control group−the chemotherapeutic agent group or the group of the compound as shown in Formula I)/the control group*100%
(§2) It is regarded as effective remission when the feces reduction rate of mice in the group of the compound as shown in Formula I is reduced compared with that in the chemotherapeutic agent group.
(§3) The feces amount of mice within 3 hours was observed and recorded every day. At the end of the experiment, the number of mice in the group of the compound as shown in Formula I whose feces reduction rate was lower than that of mice in the chemotherapeutic agent group was recorded. Table 4 lists various animal experiment combinations of chemotherapeutic agents and the compound as shown in Formula I, as well as the corresponding experimental results.

[2] = system: Balb/c mice, constipation caused by continuous administration of a chemotherapeutic agent; assay: Relieving effect on constipation caused by the continuous administration of a chemotherapeutic agent (Examples 385-405); format: in vivo
Description: Balb/c mice were fed for 1 week, and then divided into groups. The experiment was divided into a control group, a chemotherapeutic agent group, and a group of the compound as shown in Formula I, each of which comprised 10 mice, to perform the administration experiment, for which the administration dosage, mode, time and frequency were shown in Table 6. The control group: being injected or intragastrically administered with the same solvent as that used in the group of the compound as shown in Formula I (the administration mode and time were shown in Table 6), and then being injected or intragastrically administered with the same solvent as that used in the group of the compound as shown in Formula I (the administration mode was shown in Table 6); the chemotherapeutic agent group: being injected or intragastrically administered with the same solvent as that used in the group of the compound as shown in Formula I (the administration mode and time were shown in Table 6), and then being injected or intragastrically administered with the chemotherapeutic agent (the type, administration mode, time and dosage were shown in Table 6); the group of the compound as shown in Formula I: being injected or intragastrically administered with the compound as shown in Formula I (the administration mode and time were shown in Table 6), and then being administered with the chemotherapeutic agent (the type, administration mode, time and dosage were shown in Table 6).
as §1, §2
as §3, with “6” for “4”

[3] = continuous administration of fluorouracil for less than 7 days
[4] = continuous administration of the chemotherapeutic agent for 7 days or less

`CN1CCN(c2ccc(Nc3ncc4cc5n(c4n3)C3(CCCCC3)CNC5=O)nc2)CC1` [Compound I hydrochloride, Trilaciclib dihydrochloride] was tested, and the “Relative remission rate (%)” value ([1]; Example 315, Fluorouracil 125 (F) and irinotecan 240 (I) mg/kg intraperitoneal injection single, compound intraperitoneal injection 150 mg/kg single, 0.5 h before chemotherapeutic agent, cycle 10 days) was 20%, the “Relative remission rate (%)” value ([1]; Example 316, Fluorouracil 125 (F) and irinotecan 240 (I) mg/kg intraperitoneal injection single, compound intraperitoneal injection 150 mg/kg single, 4 h before chemotherapeutic agent, cycle 10 days) was 60% and the “Relative remission rate (%)” value ([1]; Example 317, Fluorouracil 125 (F) and irinotecan 240 (I) mg/kg intraperitoneal injection single, compound intraperitoneal injection 150 mg/kg single, 12 h before chemotherapeutic agent, cycle 10 days) was 40%. For the same compound, the “Relative remission rate (%)” value ([1]; Example 343, Fluorouracil 100 (F), oxaliplatin 5 (O), irinotecan 100 (I) and tetrahydrofolic acid 100 (L) mg/kg intravenous injection single, compound intraperitoneal injection 150 mg/kg single, 0.5 h before chemotherapeutic agent, cycle 8 days) was 30%, the “Relative remission rate (%)” value ([1]; Example 344, Fluorouracil 100 (F), oxaliplatin 5 (O), irinotecan 100 (I) and tetrahydrofolic acid 100 (L) mg/kg intravenous injection single, compound intraperitoneal injection 150 mg/kg single, 12 h before chemotherapeutic agent, cycle 8 days) was 70% and the “Relative remission rate (%)” value ([2]; Example 393, Fluorouracil (5-Fu) 100 mg/kg intraperitoneal injection once a day for 5 days, compound 150 mg/kg intraperitoneal injection once a day for 5 days, 0.5 h before the chemotherapeutic agent, experimental cycle 9 days) was 70%. For the same compound, the “Relative remission rate (%)” value ([2]; Example 394, Fluorouracil (5-Fu) 100 mg/kg intraperitoneal injection once a day for 5 days, compound 150 mg/kg intraperitoneal injection once a day for 5 days, 4 h before the chemotherapeutic agent, experimental cycle 9 days) was 50% and the “Relative remission rate (%)” value ([2]; Example 395, Fluorouracil (5-Fu) 100 mg/kg intraperitoneal injection once a day for 5 days, compound 150 mg/kg intraperitoneal injection once a day for 5 days, 12 h before the chemotherapeutic agent, experimental cycle 9 days) was 30%.

For `O=C1NCC2(CCCCC2)n2c1cc1cnc(Nc3ccc(N4CCNCC4)cn3)nc12` [Compound II], the “Relative remission rate (%)” value ([1]; Example 283, Oxaliplatin intravenous injection 25 mg/kg single, compound intramuscular injection 100 mg/kg single, 1 h before chemotherapeutic agent, cycle 7 days) was 50%, the “Relative remission rate (%)” value ([1]; Example 284, Oxaliplatin intravenous injection 25 mg/kg single, compound intramuscular injection 100 mg/kg single, 6 h before chemotherapeutic agent, cycle 7 days) was 30% and the “Relative remission rate (%)” value ([1]; Example 285, Oxaliplatin intravenous injection 25 mg/kg single, compound intramuscular injection 100 mg/kg single, 12 h before chemotherapeutic agent, cycle 7 days) was 30%. The “Relative remission rate (%)” value ([1]; Example 347, Fluorouracil 100 (F), oxaliplatin 5 (O), irinotecan 100 (I) and tetrahydrofolic acid 100 (L) mg/kg intraperitoneal injection single, compound intravenous injection 100 mg/kg single, 0.5 h before chemotherapeutic agent, cycle 7 days) was 70%, the “Relative remission rate (%)” value ([1]; Example 348, Fluorouracil 100 (F), oxaliplatin 5 (O), irinotecan 100 (I) and tetrahydrofolic acid 100 (L) mg/kg intraperitoneal injection single, compound intravenous injection 100 mg/kg single, 2 h before chemotherapeutic agent, cycle 7 days) was 50% and the “Relative remission rate (%)” value ([1]; Example 359, Gemcitabine (GEM) intraperitoneal injection 120 mg/kg single, compound oral administration 100 mg/kg single, 12 h before chemotherapeutic agent, cycle 8 days) was 40%. The “Relative remission rate (%)” value ([1]; Example 361, Etoposide 60 (E) and carboplatin 5 (C) mg/kg intraperitoneal injection single, compound oral administration 100 mg/kg single, 2 h before chemotherapeutic agent, cycle 10 days) was 60%, the “Relative remission rate (%)” value ([1]; Example 364, Gemcitabine 120 (G) and carboplatin 5 (C) mg/kg intravenous injection single, compound oral administration 100 mg/kg single, 24 h before chemotherapeutic agent, cycle 8 days) was 30% and the “feces reduction rates compared with the chemotherapeutic agent group” value [1] was “reduced to different degrees”. The “Relative remission rate (%)” value ([2]; Example 397, Fluorouracil (5-Fu) 100 mg/kg intraperitoneal injection once a day for 3 days, compound 100 mg/kg intraperitoneal injection once a day for 3 days, 0.5 h before the chemotherapeutic agent, experimental cycle 7 days) was 20%, the “relieving effects on constipation” value [2, 3] was “significant relieving effects” and the “relieving effects on constipation” value [2, 4] was “have relieving effects”.

`CC(C)N1CCN(c2ccc(Nc3ncc4cc5n(c4n3)C3(CCCCC3)CNC5=O)nc2)CC1` [Compound IV, Lerociclib] was tested, and the “Relative remission rate (%)” value ([1]; Example 246, Fluorouracil (5-Fu) intravenous injection 250 mg/kg single, compound oral administration 100 mg/kg single, 0.5 h before chemotherapeutic agent, cycle 10 days) was 30%, the “Relative remission rate (%)” value ([1]; Example 247, Fluorouracil (5-Fu) intravenous injection 250 mg/kg single, compound oral administration 100 mg/kg single, 4 h before chemotherapeutic agent, cycle 10 days) was 60% and the “Relative remission rate (%)” value ([1]; Example 248, Fluorouracil (5-Fu) intravenous injection 250 mg/kg single, compound oral administration 100 mg/kg single, 12 h before chemotherapeutic agent, cycle 10 days) was 20%. The “Relative remission rate (%)” value ([1]; Example 351, Fluorouracil 100 (F), oxaliplatin 5 (O), irinotecan 100 (I) and tetrahydrofolic acid 100 (L) mg/kg intraperitoneal injection single, compound oral administration 100 mg/kg single, 4 h before chemotherapeutic agent, cycle 7 days) was 60%, the “Relative remission rate (%)” value ([1]; Example 352, Fluorouracil 100 (F), oxaliplatin 5 (O), irinotecan 100 (I) and tetrahydrofolic acid 100 (L) mg/kg intraperitoneal injection single, compound oral administration 100 mg/kg single, 24 h before chemotherapeutic agent, cycle 7 days) was 30% and the “Relative remission rate (%)” value ([1]; Example 363, Gemcitabine and carboplatin intraperitoneal injection 120 mg/kg single, compound oral administration 100 mg/kg single, 4 h before chemotherapeutic agent, cycle 8 days) was 60%. For the same compound, the “feces reduction rates compared with the chemotherapeutic agent group” value [1] was “reduced to different degrees”, the “Relative remission rate (%)” value ([2]; Example 399, Fluorouracil (5-Fu) 100 mg/kg intraperitoneal injection once a day for 3 days, compound 100 mg/kg oral administration once a day for 3 days, 4 h before the chemotherapeutic agent, experimental cycle 7 days) was 50% and the “relieving effects on constipation” value [2, 3] was “significant relieving effects”. For the same compound, the “relieving effects on constipation” value [2, 4] was “have relieving effects”.
